The target in one data set is NR2B (Homo sapiens, UniProt Q05586+Q13224). Description: Functional activity (method not described). It counts as cell-based.
Another data set concerns the target T1, HERG potassium channel (Homo sapiens, UniProt Q12809).
T1 construct: expressed in transfected cells; host or cells: HEK-293
As to the kind of experiment: Dofetilide binding assay ([3H]-dofetilide competition, membranes of HEK-293 cells expressing the HERG product).

The target of a further data set is T2, NR2B subunit (Rattus norvegicus, UniProt P35439+Q00960).
T2 construct: Membranes were prepared by homogenization of forebrain of male CD rats; from tissue; host or cells: rat forebrain P2 membrane
As to the kind of experiment: NR2B binding assay ([3H]-CP-98,113 competition, rat forebrain P2 membrane). The following applies: 5 nM [3H]-CP-98,113, rat forebrain P2 membrane. As for the experimental part: The activity of the 3,4-dihydroquinolin-2(1H)-one compounds of the present invention, as NR2B antagonists, is determined by their ability to inhibit the binding of NR2B subunit at its receptor sites employing radioactive ligands.
The NR2B antagonist activity of the 3,4-dihydroquinolin-2(1H)-one compounds is evaluated by using the standard assay procedure described in, for example, J. Pharmacol., 331, pp117-126, 1997. […] More specifically, the assay is carried out as follows.
Membranes were prepared by homogenization of forebrain of male CD rats weighing between 170˜190 g by using glass-Teflon homogenizer in 0.32 M sucrose at 4° C. […]
For the saturation assay, receptor saturation was determined by incubating [^3H]-CP-98,113 and 50 μg protein of P2 membrane for 60 minutes at room temperature in a final 100 μl of incubation buffer (50 mM Tris HCl, pH7.4). Total and non-specific bindings (in the presence of 10 μM of unlabeled CP-98,113) were determined in a range of [^3H]-CP-98113 concentrations (0.625 nM to 60 nM). […]
For the competition assay, test compounds were incubated in duplicate with 5 nM [^3H]-CP-98,113 and 50 μg protein of P2 membrane for 60 minutes at room temperature in a final 100 μl of 50 mM Tris HCl buffer (pH7.4). Nonspecific binding was determined by 10 μM of unlabeled CP-98,113 (25 μl). […]

Structures can show the parent of a compound that is named as a salt.

T1 sequence (Q12809 whole entry): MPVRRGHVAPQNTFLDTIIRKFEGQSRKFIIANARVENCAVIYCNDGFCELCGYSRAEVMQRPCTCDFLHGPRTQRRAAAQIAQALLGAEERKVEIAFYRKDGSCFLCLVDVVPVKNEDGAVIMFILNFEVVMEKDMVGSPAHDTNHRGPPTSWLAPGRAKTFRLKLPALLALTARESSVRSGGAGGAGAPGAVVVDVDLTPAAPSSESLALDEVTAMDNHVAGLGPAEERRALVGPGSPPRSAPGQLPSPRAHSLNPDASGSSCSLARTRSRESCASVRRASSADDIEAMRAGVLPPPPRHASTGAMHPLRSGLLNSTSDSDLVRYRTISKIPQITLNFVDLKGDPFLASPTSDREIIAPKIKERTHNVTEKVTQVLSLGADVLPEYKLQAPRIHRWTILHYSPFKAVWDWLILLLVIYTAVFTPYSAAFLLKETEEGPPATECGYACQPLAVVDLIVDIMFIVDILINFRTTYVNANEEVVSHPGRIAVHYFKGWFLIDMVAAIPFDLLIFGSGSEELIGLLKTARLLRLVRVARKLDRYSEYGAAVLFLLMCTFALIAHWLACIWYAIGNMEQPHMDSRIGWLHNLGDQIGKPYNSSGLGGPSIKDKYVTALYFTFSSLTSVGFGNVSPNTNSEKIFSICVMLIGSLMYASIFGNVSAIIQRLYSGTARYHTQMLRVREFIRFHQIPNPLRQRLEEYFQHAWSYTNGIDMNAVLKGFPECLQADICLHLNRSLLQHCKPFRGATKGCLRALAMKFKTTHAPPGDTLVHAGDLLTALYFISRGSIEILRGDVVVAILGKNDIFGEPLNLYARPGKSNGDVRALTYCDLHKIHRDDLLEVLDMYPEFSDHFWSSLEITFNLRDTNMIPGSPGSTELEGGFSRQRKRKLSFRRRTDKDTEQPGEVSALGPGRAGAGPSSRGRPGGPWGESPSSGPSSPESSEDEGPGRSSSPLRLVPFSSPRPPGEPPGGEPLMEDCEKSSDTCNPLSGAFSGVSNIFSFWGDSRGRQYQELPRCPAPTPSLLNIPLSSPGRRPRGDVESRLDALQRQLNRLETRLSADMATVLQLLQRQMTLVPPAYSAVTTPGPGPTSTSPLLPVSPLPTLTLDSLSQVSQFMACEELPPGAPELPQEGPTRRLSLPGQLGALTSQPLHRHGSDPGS
T2 sequence (Q00960 27-1482, other chains not shown): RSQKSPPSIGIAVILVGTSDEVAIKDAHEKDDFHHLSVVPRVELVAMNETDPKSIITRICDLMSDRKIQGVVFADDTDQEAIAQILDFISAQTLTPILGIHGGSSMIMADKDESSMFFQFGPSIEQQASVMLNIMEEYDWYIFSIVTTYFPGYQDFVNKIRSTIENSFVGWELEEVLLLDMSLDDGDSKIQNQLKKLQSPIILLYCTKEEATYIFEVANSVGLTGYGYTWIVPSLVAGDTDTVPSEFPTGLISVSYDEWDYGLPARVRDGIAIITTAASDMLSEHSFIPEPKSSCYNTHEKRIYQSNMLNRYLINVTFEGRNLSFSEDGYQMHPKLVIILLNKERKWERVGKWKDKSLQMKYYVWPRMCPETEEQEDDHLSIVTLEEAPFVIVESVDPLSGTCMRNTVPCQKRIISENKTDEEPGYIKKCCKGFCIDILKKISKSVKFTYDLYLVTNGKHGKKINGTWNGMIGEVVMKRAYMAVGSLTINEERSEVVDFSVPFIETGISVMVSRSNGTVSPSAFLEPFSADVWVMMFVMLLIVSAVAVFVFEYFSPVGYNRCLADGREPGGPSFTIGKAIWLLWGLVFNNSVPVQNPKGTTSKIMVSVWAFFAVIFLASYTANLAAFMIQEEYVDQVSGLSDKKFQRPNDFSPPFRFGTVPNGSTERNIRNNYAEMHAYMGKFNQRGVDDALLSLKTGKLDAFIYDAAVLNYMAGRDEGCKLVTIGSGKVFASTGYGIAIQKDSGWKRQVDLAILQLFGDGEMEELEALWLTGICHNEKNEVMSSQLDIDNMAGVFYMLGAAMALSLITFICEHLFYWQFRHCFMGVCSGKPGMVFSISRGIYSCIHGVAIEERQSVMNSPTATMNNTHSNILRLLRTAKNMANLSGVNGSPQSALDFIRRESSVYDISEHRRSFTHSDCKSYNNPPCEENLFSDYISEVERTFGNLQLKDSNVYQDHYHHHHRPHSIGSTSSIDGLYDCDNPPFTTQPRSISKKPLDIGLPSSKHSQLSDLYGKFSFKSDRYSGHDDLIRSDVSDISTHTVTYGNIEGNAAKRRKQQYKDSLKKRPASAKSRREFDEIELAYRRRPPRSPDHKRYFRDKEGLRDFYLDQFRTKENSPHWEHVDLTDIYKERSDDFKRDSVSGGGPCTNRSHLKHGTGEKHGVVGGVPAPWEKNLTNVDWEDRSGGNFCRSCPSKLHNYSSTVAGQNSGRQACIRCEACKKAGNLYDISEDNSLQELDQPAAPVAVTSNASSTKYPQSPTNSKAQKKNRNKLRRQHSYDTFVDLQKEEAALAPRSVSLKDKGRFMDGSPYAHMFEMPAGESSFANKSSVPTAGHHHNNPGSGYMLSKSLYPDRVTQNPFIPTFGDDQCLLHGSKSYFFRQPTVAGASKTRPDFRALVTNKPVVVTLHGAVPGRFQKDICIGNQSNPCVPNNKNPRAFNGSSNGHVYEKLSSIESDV
NR2B, sequence (Q13224 27-1484, species assumed, other chains not shown): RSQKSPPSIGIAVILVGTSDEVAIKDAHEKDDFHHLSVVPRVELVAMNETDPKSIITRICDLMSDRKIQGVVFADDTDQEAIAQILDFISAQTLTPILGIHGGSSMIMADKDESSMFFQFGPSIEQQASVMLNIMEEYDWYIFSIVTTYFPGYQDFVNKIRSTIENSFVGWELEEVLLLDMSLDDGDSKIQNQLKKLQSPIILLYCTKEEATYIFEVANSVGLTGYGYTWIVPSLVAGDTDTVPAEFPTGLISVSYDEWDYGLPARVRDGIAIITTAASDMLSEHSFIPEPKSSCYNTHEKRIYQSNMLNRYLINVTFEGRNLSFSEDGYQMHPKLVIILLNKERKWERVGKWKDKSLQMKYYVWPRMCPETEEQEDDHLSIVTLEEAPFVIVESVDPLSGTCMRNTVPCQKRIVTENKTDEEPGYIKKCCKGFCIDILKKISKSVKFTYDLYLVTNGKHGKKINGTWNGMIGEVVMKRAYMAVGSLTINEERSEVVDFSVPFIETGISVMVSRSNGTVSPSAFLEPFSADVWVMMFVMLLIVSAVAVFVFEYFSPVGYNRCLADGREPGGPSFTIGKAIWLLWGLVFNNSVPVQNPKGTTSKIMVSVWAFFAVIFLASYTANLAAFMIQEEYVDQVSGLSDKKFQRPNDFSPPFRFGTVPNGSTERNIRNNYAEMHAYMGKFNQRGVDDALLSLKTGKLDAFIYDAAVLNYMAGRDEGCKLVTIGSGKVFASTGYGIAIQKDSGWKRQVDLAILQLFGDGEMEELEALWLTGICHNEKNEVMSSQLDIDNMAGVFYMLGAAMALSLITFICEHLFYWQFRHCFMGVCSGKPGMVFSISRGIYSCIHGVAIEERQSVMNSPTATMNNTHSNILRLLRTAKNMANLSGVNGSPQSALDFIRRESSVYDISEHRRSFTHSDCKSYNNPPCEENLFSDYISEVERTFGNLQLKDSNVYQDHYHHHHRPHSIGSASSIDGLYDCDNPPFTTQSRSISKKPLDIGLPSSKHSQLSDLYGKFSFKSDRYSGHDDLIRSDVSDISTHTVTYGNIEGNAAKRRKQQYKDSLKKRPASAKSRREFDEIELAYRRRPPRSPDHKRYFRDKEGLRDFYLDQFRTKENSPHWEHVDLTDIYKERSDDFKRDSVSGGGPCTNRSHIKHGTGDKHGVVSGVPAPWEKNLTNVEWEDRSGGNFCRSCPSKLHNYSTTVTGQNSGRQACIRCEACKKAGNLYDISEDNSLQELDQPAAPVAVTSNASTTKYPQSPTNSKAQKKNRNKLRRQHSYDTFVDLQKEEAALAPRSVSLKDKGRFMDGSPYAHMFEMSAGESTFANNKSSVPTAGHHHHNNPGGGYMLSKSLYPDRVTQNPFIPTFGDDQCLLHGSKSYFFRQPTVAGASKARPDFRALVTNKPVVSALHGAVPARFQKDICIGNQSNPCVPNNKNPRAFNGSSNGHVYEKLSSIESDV

As usually defined, the IC50 is the concentration that gives 50% inhibition. A high value points to weaker potency in that assay. In turn, `C[C@H]([C@H](O)c1ccc2c(c1)CCC(=O)N2)N1CCC(O)(c2ccccc2)CC1` came in with an IC50 against NR2B of 22.4 nM. This lies in the double-digit nanomolar range.
By Ki is commonly meant a measure of affinity in units of concentration, obtained from inhibition or displacement. Higher therefore signals weaker binding. For `O=C1CCc2cc([C@@H](O)CN3CCC(O)(c4cccc(F)c4)CC3)ccc2N1`, the IC50 against NR2B worked out at 11.9 nM. Moreover, the Ki came out at 8300 nM on HERG potassium channel (5 nM [3H]-dofetilide, HERG homogenate of HEK-293 cells) and 3.5 nM on NR2B subunit. The “TI (Defetilide/NR2B)” value at HERG potassium channel (TI = Dofetilide Binding Ki [μM]/NR2B Binding Ki [nM] x 1000) came to 2400.
For orientation: melting point means the temperature, or range, at which the solid turns liquid. With `CS(=O)(=O)O.O=C1CCc2cc([C@@H](O)CN3CCC(O)(c4cccc(F)c4)CC3)ccc2N1`, the melting point lay within 180 to 182 °C.
Take `COc1cccc(C2(O)CCN(CC(O)c3ccc4c(c3)CCC(=O)N4)CC2)c1` (stereo not drawn) (as salt: hydrochloride) [Example 2, 6-{1-Hydroxy-2-[4-hydroxy-4-(3-methoxyphenyl)-1-piperidinyl]ethyl}-3,4-dihydroquinolin-2(1H)-one Hydrochloride]: the melting point was 246.9 °C.
In the case of `Cc1cccc(C2(O)CCN(CC(O)c3ccc4c(c3)CCC(=O)N4)CC2)c1` (stereo not drawn) (as salt: mesylate) [Example 4, 6-[1-Hydroxy-2-[4-hydroxy-4-(3-methylphenyl)piperidin-1-yl]ethyl]-3,4-dihydroquinolin-2(1H)-one mesylate], the melting point was 98 to 100 °C (dec.).
In the case of `C[C@H]([C@H](O)c1ccc2c(c1)CCC(=O)N2)N1CCC(O)(c2ccc(F)cc2)CC1` [reference compound], the affinity on NR2B subunit corresponds to a Ki of 7 nM.

The values are drawn from US6713490B2, “3,4-dihydroquinolin-2(1H)-one compounds as NR2B receptor antagonists” (Pfizer, Inc., priority 2002, dated 2004).
